Common to all, as to format: biochemical
One experiment concerns the target PDE9 (Homo sapiens, UniProt O76083). Put plainly: PDE9 inhibition assay, SPA with 3H-cAMP. Conditions: compound at 10 microM; 10 nM 3H-cAMP, 1 hr incubation. As for the experimental part: A PDE9 assay may for example, be performed as follows: The assay is performed in 60 μL samples containing a fixed amount of the relevant PDE enzyme (sufficient to convert 20-25% of the cyclic nucleotide substrate), a buffer (50 mM HEPES7.6; 10 mM MgCl2; 0.02% Tween20), 0.1 mg/mL BSA, 225 pCi of ^3H-labelled cyclic nucleotide substrate, tritium labeled cAMP to a final concentration of 5 nM and varying amounts of inhibitors. Reactions are initiated by addition of the cyclic nucleotide substrate, and reactions are allowed to proceed for one hr at room temperature before being terminated through mixing with 15 μL 8 mg/mL yttrium silicate SPA beads (Amersham). The beads are allowed to settle for one hr in the dark before the plates are counted in a Wallac 1450 Microbeta counter. The measured signal can be converted to activity relative to an uninhibited control (100%) and IC50 values can be calculated using the Xlfit extension to EXCEL.
In the context of the present invention the assay was performed in 60 uL assay buffer (50 mM HEPES pH 7.6; 10 mM MgCl2; 0.02% Tween20) containing enough PDE9 to convert 20-25% of 10 nM ^3H-cAMP and varying amounts of inhibitors. Following a 1 hr incubation the reactions were terminated by addition of 15 uL 8 mg/mL yttrium silicate SPA beads (Amersham). The beads were allowed to settle for one hr in the dark before the plates were counted in a Wallac 1450 Microbeta counter.

The next experiment has as its target PDE1C (Homo sapiens, UniProt Q14123). Put plainly: PDE1 inhibition assay (PDE1C), SPA with tritium labelled cAMP. To be noted: 15 nM tritium labelled cAMP, 1 hr at room temperature. As for the experimental part:
(§1) PDE1A, PDE1B and PDE1C assays were performed as follows: the assays was performed in 60 μL samples containing a fixed amount of the PDE1 enzym1 (sufficient to convert 20-25% of the cyclic nucleotide substrate), a buffer (50 mM HEPES pH 7.6; 10 mM MgCl2; 0.02% Tween20), 0.1 mg/mL BSA, 15 nM tritium labelled cAMP and varying amounts of inhibitors. Reactions were initiated by addition of the cyclic nucleotide substrate, and reactions were allowed to proceed for 1 hr at room temperature before being terminated through mixing with 20 μL (0.2 mg) yttrium silicate SPA beads (PerkinElmer). The beads were allowed to settle for 1 hr in the dark before the plates were counted in a Wallac 1450 Microbeta counter. The measured signals were converted to activity relative to an uninhibited control (100%) and IC50 values were calculated using XIFit (model 205, IDBS).

In another experiment the target is PDE1B (Homo sapiens, UniProt Q01064). The experiment is described as follows: PDE1 inhibition assay (PDE1B), SPA with tritium labelled cAMP. To be noted: 15 nM tritium labelled cAMP, 1 hr at room temperature. Here is the method: as §1
A further experiment deals with PDE1A (Homo sapiens, UniProt P54750). The experiment is described as follows: PDE1 inhibition assay (PDE1A), SPA with tritium labelled cAMP. Conditions: 15 nM tritium labelled cAMP, 1 hr at room temperature. Here is the method: as §1

pIC50: −log10 of the molar value.

Sequence of PDE1A (P54750 whole entry): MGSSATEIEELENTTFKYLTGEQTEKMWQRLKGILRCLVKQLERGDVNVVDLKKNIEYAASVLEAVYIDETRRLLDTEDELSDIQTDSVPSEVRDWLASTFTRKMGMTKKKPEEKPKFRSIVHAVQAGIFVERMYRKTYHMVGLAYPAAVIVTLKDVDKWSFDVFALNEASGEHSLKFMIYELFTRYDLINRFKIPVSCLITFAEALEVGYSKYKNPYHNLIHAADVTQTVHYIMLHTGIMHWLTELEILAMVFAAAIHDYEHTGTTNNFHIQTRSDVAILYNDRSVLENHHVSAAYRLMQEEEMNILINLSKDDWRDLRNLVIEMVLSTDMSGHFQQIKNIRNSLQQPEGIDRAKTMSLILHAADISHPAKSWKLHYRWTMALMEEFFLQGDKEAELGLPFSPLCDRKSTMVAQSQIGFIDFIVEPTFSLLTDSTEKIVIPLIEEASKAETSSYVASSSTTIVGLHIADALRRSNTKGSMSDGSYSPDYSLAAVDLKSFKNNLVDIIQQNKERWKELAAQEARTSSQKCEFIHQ
Sequence of PDE1B (Q01064 whole entry): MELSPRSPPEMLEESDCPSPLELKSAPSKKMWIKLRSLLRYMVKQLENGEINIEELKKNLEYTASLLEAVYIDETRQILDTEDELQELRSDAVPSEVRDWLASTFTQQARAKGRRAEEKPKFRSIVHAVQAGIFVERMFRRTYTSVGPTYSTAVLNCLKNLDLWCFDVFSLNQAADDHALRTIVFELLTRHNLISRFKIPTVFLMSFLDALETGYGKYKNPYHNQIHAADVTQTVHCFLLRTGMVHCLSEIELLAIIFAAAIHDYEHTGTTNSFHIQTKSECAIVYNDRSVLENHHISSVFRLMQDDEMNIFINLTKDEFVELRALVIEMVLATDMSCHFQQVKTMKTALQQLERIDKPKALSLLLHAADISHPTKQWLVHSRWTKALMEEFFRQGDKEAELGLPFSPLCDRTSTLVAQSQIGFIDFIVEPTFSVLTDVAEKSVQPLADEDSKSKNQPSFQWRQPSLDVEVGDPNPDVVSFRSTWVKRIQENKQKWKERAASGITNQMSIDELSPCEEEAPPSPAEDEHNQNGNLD
Sequence of PDE1C (Q14123 whole entry): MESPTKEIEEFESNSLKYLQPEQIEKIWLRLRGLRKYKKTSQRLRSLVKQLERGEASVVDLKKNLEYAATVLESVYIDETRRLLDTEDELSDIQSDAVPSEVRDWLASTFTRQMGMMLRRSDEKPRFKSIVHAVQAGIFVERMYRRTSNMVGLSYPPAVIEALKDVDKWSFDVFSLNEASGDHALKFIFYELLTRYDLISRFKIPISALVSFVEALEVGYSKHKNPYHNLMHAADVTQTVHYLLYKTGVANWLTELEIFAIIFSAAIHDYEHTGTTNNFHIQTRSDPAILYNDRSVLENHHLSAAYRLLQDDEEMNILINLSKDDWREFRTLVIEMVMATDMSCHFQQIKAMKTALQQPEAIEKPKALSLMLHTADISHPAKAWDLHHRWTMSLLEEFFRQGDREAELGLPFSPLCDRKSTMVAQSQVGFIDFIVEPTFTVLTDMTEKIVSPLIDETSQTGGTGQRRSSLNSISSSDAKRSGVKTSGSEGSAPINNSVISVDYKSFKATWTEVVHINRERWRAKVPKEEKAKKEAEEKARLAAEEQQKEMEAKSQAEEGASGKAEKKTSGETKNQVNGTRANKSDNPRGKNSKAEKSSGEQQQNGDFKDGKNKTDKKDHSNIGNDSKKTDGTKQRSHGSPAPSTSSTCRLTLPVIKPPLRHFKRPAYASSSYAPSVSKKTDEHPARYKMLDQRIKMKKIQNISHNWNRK
Sequence of PDE9 (O76083 whole entry): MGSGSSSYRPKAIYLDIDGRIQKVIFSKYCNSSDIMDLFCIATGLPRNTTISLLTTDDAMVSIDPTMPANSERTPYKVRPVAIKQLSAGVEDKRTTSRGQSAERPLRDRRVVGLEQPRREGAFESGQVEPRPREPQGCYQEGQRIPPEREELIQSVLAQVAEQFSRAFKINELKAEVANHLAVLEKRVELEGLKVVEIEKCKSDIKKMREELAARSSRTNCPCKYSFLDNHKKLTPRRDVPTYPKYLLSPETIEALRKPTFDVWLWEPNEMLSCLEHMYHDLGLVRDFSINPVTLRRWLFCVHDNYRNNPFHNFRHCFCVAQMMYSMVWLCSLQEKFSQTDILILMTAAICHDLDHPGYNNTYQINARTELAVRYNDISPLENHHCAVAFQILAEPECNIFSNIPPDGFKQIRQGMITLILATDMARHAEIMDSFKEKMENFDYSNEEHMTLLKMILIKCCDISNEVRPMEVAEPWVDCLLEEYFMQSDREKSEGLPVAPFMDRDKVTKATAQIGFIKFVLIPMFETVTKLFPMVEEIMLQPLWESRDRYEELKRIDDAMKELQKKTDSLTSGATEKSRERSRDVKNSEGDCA

As to `O=c1c2cnc(C3CCOCC3)n2ncn1Cc1cccc(F)c1` [Example 27, 3-(3-Fluorobenzyl)-7-(tetrahydro-2H-pyran-4-yl)imidazo[5,1-f][1,2,4]triazin-4(3H)-one], the inhibition at 10 µM on PDE9 came out at 17%. The compound also showed a pIC50 on PDE1C of 6.36.
Consider `Cc1ccc(Cc2nn3c(C4CCOCC4)ncc3c(=O)n2CC2CCC(C)CC2)cc1` (single isomer, unassigned) [11 Stereoisomer 2], for which the pIC50 at PDE1B was 8.00; against PDE1A, 8.10; on PDE1C it was 8.30. Besides, the “% inhibition of PDE9 at 10 microM” value on PDE9 is recorded as 15%.
As to `Cc1nn2c(C3CCOCC3)ncc2c(=O)n1Cc1ccccc1Cl` [Example 16, 3-(2-Chlorobenzyl)-2-methyl-7-(tetrahydro-2H-pyran-4-yl)imidazo[5,1-f][1,2,4]triazin-4(3H)-one], the pIC50 against PDE1B is 6.66; on PDE1A it was 6.93; on PDE1C, 7.70. Besides, the inhibition at 10 µM against PDE9 amounted to 11%.
The like results for `COc1cccc(Cn2c(C)nn3c(C4CCOCC4)ncc3c2=O)c1` [Example 19, 3-(3-Methoxybenzyl)-2-methyl-7-(tetrahydro-2H-pyran-4-yl)imidazo[5,1-f][1,2,4]triazin-4(3H)-one] were, in that order, 6.59, 6.94, 7.28 and 4%.
With `Cc1ccc(Cc2nn3c(C4CCOCC4)ncc3c(=O)n2CC2CCOC2)cc1` (single isomer, unassigned) [12 Stereoisomer 1], the pIC50 against PDE1B is 6.59; against PDE1C it was 6.98. Further, at PDE9, the “% inhibition of PDE9 at 10 microM” value is 3%.
As to `Cc1ccc(Cc2nn3c(C4CCOCC4)ncc3c(=O)n2CC2CCC2)cc1` [Example 10, 3-(Cyclobutylmethyl)-2-(4-methylbenzyl)-7-(tetrahydro-2H-pyran-4-yl)imidazo[5,1-f][1,2,4]triazin-4(3H)-one], the pIC50 against PDE1B is 6.99; at PDE1A, 6.61; against PDE1C, 7.21. At PDE9, the inhibition at 10 µM is -11%.
As for `Cc1nn2c(C3CCOCC3)ncc2c(=O)n1Cc1ccc(F)cc1` [Example 14, 3-(4-Fluorobenzyl)-2-methyl-7-(tetrahydro-2H-pyran-4-yl)imidazo[5,1-f][1,2,4]triazin-4(3H)-one], the figures for the pIC50 against PDE1B, against PDE1A and at PDE1C were 6.87, 7.11 and 7.46, respectively. The inhibition at 10 µM against PDE9 is 18%.
For `CCn1c(Cc2ccc(C)cc2)nn2c(C3CCOCC3)ncc2c1=O` [Example 3, 3-Ethyl-2-(4-methylbenzyl)-7-(tetrahydro-2H-pyran-4-yl)imidazo[5,1-f][1,2,4]triazin-4(3H)-one], the results for the pIC50 at PDE1B, against PDE1A and at PDE1C were 7.10, 6.74 and 6.55, respectively. The inhibition at 10 µM against PDE9 came to 15%.
For the compound `Cc1ccc(Cc2nn3c(C4CCOCC4)ncc3c(=O)n2CC2CCC(C)CC2)cc1` (single isomer, unassigned) [11 Stereoisomer 1], the negative logarithm of the IC50 (pIC50) was 7.48 against PDE1B, 7.37 on PDE1A and 7.16 against PDE1C. Besides, on PDE9, the “% inhibition of PDE9 at 10 microM” value is given as −9%.
With `Cc1nn2c(C3CCOCC3)ncc2c(=O)n1CC1CCCCC1` [Example 1, 3-(Cyclohexylmethyl)-2-methyl-7-(tetrahydro-2H-pyran-4-yl)imidazo[5,1-f][1,2,4]triazin-4(3H)-one], the pIC50 against PDE1B is 7.52; against PDE1A, 7.82; against PDE1C, 8.05. In addition, the inhibition at 10 µM against PDE9 turned out to be 26%.
As to `O=c1c2cnc(C3CCOCC3)n2ncn1CC1CCCCCC1` [Example 29, 3-(Cycloheptylmethyl)-7-(tetrahydro-2H-pyran-4-yl)imidazo[5,1-f][1,2,4]triazin-4(3H)-one], the values for the pIC50 at PDE1B, on PDE1A and against PDE1C were 7.28, 7.48 and 7.60, respectively. The inhibition at 10 µM against PDE9 was determined as 21%.
`Cc1ccc(Cc2nn3c(C4CCOCC4)ncc3c(=O)n2CC2CCCCC2)cc1` [Example 7, 3-(Cyclohexylmethyl)-2-(4-methylbenzyl)-7-(tetrahydro-2H-pyran-4-yl)imidazo[5,1-f][1,2,4]triazin-4(3H)-one]: the pIC50 was 7.59 at PDE1B, 7.40 on PDE1A and 7.96 against PDE1C. In addition, the inhibition at 10 µM at PDE9 came out at 11%.
In the case of `CCc1nn2c(C3CCOCC3)ncc2c(=O)n1Cc1cccc(F)c1` [Example 25, 2-Ethyl-3-(3-fluorobenzyl)-7-(tetrahydro-2H-pyran-4-yl)imidazo[5,1-f][1,2,4]triazin-4(3H)-one], the pIC50 against PDE1B is 6.88; against PDE1A, 7.28; against PDE1C, 7.82. In addition, at PDE9, the inhibition at 10 µM was 8%.
The like results for `Cc1nn2c(C3CCOCC3)ncc2c(=O)n1Cc1ccc(Cl)cc1` [Example 24, 3-(4-Chlorobenzyl)-2-methyl-7-(tetrahydro-2H-pyran-4-yl)imidazo[5,1-f][1,2,4]triazin-4(3H)-one] were, in that order, 7.21, 7.46, 6.98 and -11%.
The like results for `Cc1ccc(Cc2nn3c(C4CCOCC4)ncc3c(=O)n2CC(C)C)cc1` [Example 5, 3-isobutyl-2-(4-methylbenzyl)-7-(tetrahydro-2H-pyran-4-yl)imidazo[5,1-f][1,2,4]triazin-4(3H)-one] were, in that order, 7.28, 7.33, 7.42 and -3%.
The like results for `Cc1ccc(Cc2nn3c(C4CCOCC4)ncc3c(=O)n2CC2CC2)cc1` [Example 8, 3-(Cyclopropylmethyl)-2-(4-methylbenzyl)-7-(tetrahydro-2H-pyran-4-yl)imidazo[5,1-f][1,2,4]triazin-4(3H)-one] were, in that order, 6.99, 7.20, 7.11 and 9%.
As for `Cc1nn2c(C3CCOCC3)ncc2c(=O)n1Cc1cccc(F)c1` [Example 13, 3-(3-Fluorobenzyl)-2-methyl-7-(tetrahydro-2H-pyran-4-yl)imidazo[5,1-f][1,2,4]triazin-4(3H)-one], the pIC50 against PDE1B is 6.59; on PDE1A it was 6.90; against PDE1C it was 7.54. The inhibition at 10 µM on PDE9 is -4%.
Consider `COc1ccc(Cn2c(C)nn3c(C4CCOCC4)ncc3c2=O)cc1` [Example 23, 3-(4-Methoxybenzyl)-2-methyl-7-(tetrahydro-2H-pyran-4-yl)imidazo[5,1-f][1,2,4]triazin-4(3H)-one], for which the pIC50 against PDE1B is 7.59; against PDE1A, 7.54; against PDE1C, 7.68. Moreover, at PDE9, the inhibition at 10 µM was -4%.
For `Cc1nn2c(C3CCOCC3)ncc2c(=O)n1Cc1ccccc1` [Example 15, 3-Benzyl-2-methyl-7-(tetrahydro-2H-pyran-4-yl)imidazo[5,1-f][1,2,4]triazin-4(3H)-one] the same measures were 6.79, 7.15, 7.77 and -13%.
For `Cc1ccccc1Cn1c(C)nn2c(C3CCOCC3)ncc2c1=O` [Example 21, 2-Methyl-3-(2-methylbenzyl)-7-(tetrahydro-2H-pyran-4-yl)imidazo[5,1-f][1,2,4]triazin-4(3H)-one] the same measures were 6.34, 6.44, 7.43 and 13%.
The like results for `Cc1nn2c(C3CCOCC3)ncc2c(=O)n1Cc1ccccc1F` [Example 20, 3-(2-Fluorobenzyl)-2-methyl-7-(tetrahydro-2H-pyran-4-yl)imidazo[5,1-f][1,2,4]triazin-4(3H)-one] were, in that order, 6.86, 7.27, 7.82 and 21%.
`O=c1c2cnc(C3CCOCC3)n2ncn1CC1CCCC1` [Example 28, 3-(Cyclopentylmethyl)-7-(tetrahydro-2H-pyran-4-yl)imidazo[5,1-f][1,2,4]triazin-4(3H)-one]: the inhibition at 10 µM against PDE9 was determined as 10%. Besides, at PDE1C, the negative-log IC50 (pIC50) is 7.07.
